Results published in ChEMBL document CHEMBL4373661, “Set-up and screening of a fragment library targeting the 14-3-3 protein interface” (Medchemcomm, 2019).
Calls of active or inactive are those of the source. The rule behind the calls is not given here.

How the values were obtained:
[1] = organism: Homo sapiens; test: Binding affinity to 15N2H labelled human 14-3-3 protein sigma C17 deletion mutant at top of helices alphaH and alphaI assessed as chemical shift perturbations in resonances at 2000 uM by 1H-15N TROSY-HSQC 2D NMR analysis
[2] = organism: Homo sapiens; test: Binding affinity to human His6-tagged 14-3-3 protein sigma C17 deletion mutant expressed in Escherichia coli BL21 (DE3) at 500 uM by WaterLOGSY NMR analysis
[3] = organism: Homo sapiens; test: Binding affinity to 15N2H labelled human 14-3-3 protein sigma C17 deletion mutant at dimer interface assessed as chemical shift perturbations in resonances at 2000 uM by 1H-15N TROSY-HSQC 2D NMR analysis

Activity [1]	Activity [2]	Activity [3]	SMILES
Active	Active		Cc1ccc(B(O)O)cc1Cl
Active	Active		CC12CC3(C)CC(C)(C1)CC(C(=O)O)(C2)C3
	Active	Active	NC(=O)c1cc(Cl)cc(Cl)c1O
